Data taken from patent US20240246941A1, “SUBSTITUTED 4-(3-AMINOPROP-1-YL)AMINOQUINOLINE ANALOGS AS MODULATORS OF MELANOMA-ASSOCIATED ANTIGEN 11 UBIQUITIN LIGASE” (ST. JUDE CHILDREN'S RESEARCH HOSPITAL, INC., priority 2020, published 2024).
In brackets after ≈: the same amount, converted by molar mass. Read-outs that look alike come from different tables or passages of the source.

Tests used:
[1] = High throughput Caco-2 permeability; type: in vitro ADME; conditions: human, 10 μmol/l, 2 h, 37° C.
Procedure: High throughput Caco-2 permeability was performed in the TranswellR 0.4 μm polycarbonate membrane 96-well system with modified methods. Caco-2 cells were maintained at 37° C. in a humidified incubator with an atmosphere of 5% CO2. The cells were cultured in 75 cm^2 flasks with Dulbecco's Modified Eagle's Medium (DMEM) containing 10% (v/v) FBS, 1% (v/v) non-essential amino acids (NEAA), 100 units/ml of penicillin, and 100 μg/ml of streptomycin. The Caco-2 cells were seeded onto inserts at a density of 2×10^4 cells/insert separately. The medium in the wells was exchanged each other day, and the trans epithelial electrical resistance (TEER) value was measured using an epithelial voltohm meter (Millipore, Billerica, Massachusetts). […] For transport experiments, each cultured monolayer on the 96-well plate was washed twice with a transport buffer (HBSS containing 25 mM HEPES, pH 7.4). The permeability assay was initiated by the addition of each compound solution (10 μmol/l) into inserts (apical side, A) or receivers (basolateral side, B). The Caco-2 cell monolayers were incubated for 2 h at 37° C. Fractions were collected from receivers (if apical to basal permeability) or inserts (if basal to apical permeability), and concentrations were assessed by UPLC/MS (Waters; Milford, MA). All compounds were tested in triplicates. The A→B (or B→A) apparent permeability coefficients (Papp) of each compound were calculated using the equation, Papp=dQ/dt×1/AC0, where dQ/dt equals the flux of a drug across the monolayer, A equals the total insert well surface area, and C0 is the initial concentration of substrate in the donor compartment. The efflux ratio was determined by dividing the Papp in the B-A direction by the Papp in the A-B direction.

[2] = Solubility assay (μSOL Evolution, UV); type: physicochemical; conditions: 18 h at RT in buffer
Procedure: Solubility assays were carried out on a Biomek FX lab automation workstation (Beckman Coulter, Inc., Fullerton, CA) using SOL Evolution software (pION Inc., Woburn, MA). The detailed method is described as follows. 10 μl of 10 mM compound stock (in DMSO) was added to 190 μl 1-propanol to make a reference stock plate. 5 μl from this reference stock plate were mixed with 70 μl 1-propanol and 75 μl citrate phosphate-buffered saline (PBS; isotonic) to make the reference plate, and the UV spectrum (250-500 nm) of the reference plate was read. 6 μl of 10 mM test compound stock was added to 594 μl buffer in a 96-well storage plate and mixed. The storage plate was sealed and incubated at RT for 18 h. The suspension was then filtered through a 96-well filter plate (pION Inc., Woburn, MA). 75 μl of filtrate was mixed with 75 μl 1-propanol to make the sample plate, and the UV spectrum of the sample plate was read. Calculations were carried out with μSOL Evolution software based on the area under the curve (AUC) of the UV spectrum of the sample and reference plates. All compounds were tested in triplicate.

[3] = target: MAGE-A11 binding to PCF11 in FLAG-MAGE-A11 HEK293FT cell lysates (Homo sapiens (Human), UniProt P43364); assay: anti-FLAG pull-down (co-IP) of MAGE-A11:PCF11 in cell lysates; conditions: 100 μM, 24 hours, immunoblot for endogenous PCF11, listed as SJ521054
Sequence of MAGE-A11 binding to PCF11 in FLAG-MAGE-A11 HEK293FT cell lysates (P43364 whole entry): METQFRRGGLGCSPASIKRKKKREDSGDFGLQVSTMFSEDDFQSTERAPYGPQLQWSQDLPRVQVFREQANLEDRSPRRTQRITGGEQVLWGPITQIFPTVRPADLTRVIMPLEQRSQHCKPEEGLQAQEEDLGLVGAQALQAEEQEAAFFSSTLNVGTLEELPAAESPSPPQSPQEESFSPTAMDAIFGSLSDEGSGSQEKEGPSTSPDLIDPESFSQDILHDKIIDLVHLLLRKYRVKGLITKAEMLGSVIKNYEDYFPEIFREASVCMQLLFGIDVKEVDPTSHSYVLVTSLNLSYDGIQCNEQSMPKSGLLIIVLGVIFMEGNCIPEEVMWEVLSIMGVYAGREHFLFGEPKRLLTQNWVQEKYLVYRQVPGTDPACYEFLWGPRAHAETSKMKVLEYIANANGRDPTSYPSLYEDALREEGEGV
Procedure: Immunoprecipitation. HEK293FT cells were plated in 6 cm^2 plates and transfected 24 hours later with Effectene (QIAGEN) according to the manufacturer's protocol. After 48 hours, cells were washed and scraped in cold PBS, spun down and resuspended in lysis buffer (50 mM Tris pH 7.4, 150 mM NaCl, 1 mM DTT, 0.1% (v/v) Triton X-100, 10 mM N-Ethylmaleimide and 1× protease inhibitor cocktail (Sigma)). Cell lysates were incubated with appropriate antibodies overnight at 4° C. and then with protein A beads for 2 hours at 4° C. Beads were then washed with lysis buffer three times and eluted with 2×SDS sample buffer.
Western Blotting and Antibodies. For western blotting, samples in SDS sample buffer were resolved on SDS-PAGE gels and then transferred to nitrocellulose membranes prior to blocking in TBST with 5% (w/v) milk powder or 3% (w/v) bovine serum albumin and probing with primary and secondary antibodies (GE Healthcare). Primary antibodies were: anti-Myc (Sigma, #C3956), anti-FLAG (Sigma, #F3165), anti-HUWE1 (Novus Biologicals, #NB 100-652), anti-PCF11 (Bethyl Laboratories, #A303-706A), anti-GAPDH (Cell Signaling Technology, #2118), anti-TRIM28 (Abcam, #ab22553), anti-AMPKa1 (Cell Signaling Technology, #2795) and anti-MMS19 (Proteintech, #16015-1-AP). Protein signal was visualized after addition of ECL detection reagent (GE Healthcare) according to manufacturer's instructions.

## FC(F)(F)c1ccc2c(NCCCNCc3ccc4[nH]ccc4c3)ccnc2c1 [SJ000521054-02, N^1-((1H-Indol-5-yl)methyl)-N^3-(7-(trifluoromethyl)quinolin-4-yl)propane-1,3-diamine]
[1]; Caco-2, pH 7.4, apical to basolateral, read-out: Caco-2 permeability, A/B
  Papp at 2 h, 10 μmol/l: 11.5 ×10⁻⁶ cm/s
[1]; Caco-2, pH 7.4, basolateral to apical, read-out: Caco-2 permeability, B/A
  Papp at 2 h, 10 μmol/l: 14.2 ×10⁻⁶ cm/s
[2]
  Solubility: 26.48 µM (≈ 10.6 µg/mL)
[3]
  MAGE-A11 binding to PCF11 in cell lysate (co-IP): inhibited MAGE-A11 binding to PCF11 in cell lysates
